From patent US9480677B2, “Enantiomers of spiro-oxindole compounds and their uses as therapeutic agents” (Xenon Pharmaceuticals Inc., priority 2009, dated 2016)
pIC50, pKd, pKi: −log10 of the molar value.

How the values were obtained:
[1] = tested on: Nav1.9 and Nav1.7 (SH-SY5Y); assay type: cell-based, Human
Nav1.8 (SK-N-BE2C) = assay type: cell-based, human
Nav1.4 (CHO-K1) = Nav1.4 (CHO-K1) (Cricetulus griseus, UniProt A0A9J7H6F9); assay type: cell-based, Chinese Hamster
Nav1.4 and 1.5 (L6) = assay type: cell-based, rat
Nav1.2 and Nav1.7 (PC12) = assay type: cell-based, rat
hNav1.7 [2] = target: T1, hNav1.7 (Homo sapiens, UniProt Q15858); assay: Electrophysiological assay, whole cell voltage clamp; assay type: cell-based; set-up: expressed in transfected cells; host or cells: HEK293; details: for pKi: affinity for the inactivated state of hNav1.7; for pKd: affinity for the rested/closed state of hNav1.7, holding potential −120 mV, read-out: Kr
Procedure: HEK293 Cells expressing hNav1.7 were cultured in DMEM growth media (Gibco) with 0.5 mg/mL G418, +/−1% PSG, and 10% heat-inactivated fetal bovine serum at 37° C. and 5% CO2. For electrophysiological recordings, cells were plated on 10 mm dishes.
Whole cell recordings were examined by established methods of whole cell voltage clamp (Bean et al., op. cit.) using an Axopatch 200B amplifier and Clampex software (Axon Instruments, Union City, Calif.). All experiments were performed at ambient temperature. Electrodes were fire-polished to resistances of 2-4 Mohms Voltage errors and capacitance artifacts were minimized by series resistance compensation and capacitance compensation, respectively. Data were acquired at 40 kHz and filtered at 5 kHz. The external (bath) solution consisted of: NaCl (140 mM), KCl (5 mM), CaCl2 (2 mM), MgCl2 (1 mM), HEPES (10 mM) at pH 7.4. The internal (pipette) solution consisted of (in mM): NaCl (5), CaCl2 (0.1), MgCl2 (2), CsCl (10), CsF (120), HEPES (10), EGTA (10), at pH 7.2.
To estimate the steady-state affinity of compounds for the resting and inactivated state of the channel (Kr and Ki, respectively), 12.5 ms test pulses to depolarizing voltages from −60 to +90 m V from a holding potential of −120 m V was used to construct current-voltage relationships (1-V curves). A voltage near the peak of the IV-curve (−30 to 0 m V) was used as the test pulse throughout the remainder of the experiment. Steady-state inactivation (availability) curves were then constructed by measuring the current activated during a 8.75 ms test pulse following 1 second conditioning pulses to potentials ranging from −120 to −10 mV.
The steady-state voltage-dependence of binding of a compound to a voltage-gated sodium channel was determined by measuring the blockage of the ionic current at two holding potentials. Binding to rested-state channels was determined by using a holding potential of −120 mV, so that maximal availability was achieved. Binding to inactivated-state channels was evaluated at a holding potential such that only about 10% of the channels were available to open. The membrane potential was held at this voltage for at least 10 seconds so that drug binding could equilibrate.
The apparent dissociation constant at each voltage was calculated with the equation:
[formula] where Kd is the dissociation constant (either Kr or Ki), and [Drug] is the concentration of the test compound.

hNav1.7 [3] = target: T1, hNav1.7; assay: cell-based
[4] = tested on: chronic constriction injury neuropathic pain; assay: Neuropathic pain model; chronic constriction injury (CCI); assay type: in vivo; details: topical ointment containing 2% (w/v)
[5] = Plasma concentration after oral dosing in the CFA model; assay type: in vivo, rats
Procedure: Each enantiomer was dosed at 10, 30, 100 or 200 mg/Kg. The plasma concentration achieved with each dose was also determined and the reversal of pain response (as the % increase from baseline threshold) is plotted as a function of plasma concentration.

T1 sequence (Q15858 whole entry): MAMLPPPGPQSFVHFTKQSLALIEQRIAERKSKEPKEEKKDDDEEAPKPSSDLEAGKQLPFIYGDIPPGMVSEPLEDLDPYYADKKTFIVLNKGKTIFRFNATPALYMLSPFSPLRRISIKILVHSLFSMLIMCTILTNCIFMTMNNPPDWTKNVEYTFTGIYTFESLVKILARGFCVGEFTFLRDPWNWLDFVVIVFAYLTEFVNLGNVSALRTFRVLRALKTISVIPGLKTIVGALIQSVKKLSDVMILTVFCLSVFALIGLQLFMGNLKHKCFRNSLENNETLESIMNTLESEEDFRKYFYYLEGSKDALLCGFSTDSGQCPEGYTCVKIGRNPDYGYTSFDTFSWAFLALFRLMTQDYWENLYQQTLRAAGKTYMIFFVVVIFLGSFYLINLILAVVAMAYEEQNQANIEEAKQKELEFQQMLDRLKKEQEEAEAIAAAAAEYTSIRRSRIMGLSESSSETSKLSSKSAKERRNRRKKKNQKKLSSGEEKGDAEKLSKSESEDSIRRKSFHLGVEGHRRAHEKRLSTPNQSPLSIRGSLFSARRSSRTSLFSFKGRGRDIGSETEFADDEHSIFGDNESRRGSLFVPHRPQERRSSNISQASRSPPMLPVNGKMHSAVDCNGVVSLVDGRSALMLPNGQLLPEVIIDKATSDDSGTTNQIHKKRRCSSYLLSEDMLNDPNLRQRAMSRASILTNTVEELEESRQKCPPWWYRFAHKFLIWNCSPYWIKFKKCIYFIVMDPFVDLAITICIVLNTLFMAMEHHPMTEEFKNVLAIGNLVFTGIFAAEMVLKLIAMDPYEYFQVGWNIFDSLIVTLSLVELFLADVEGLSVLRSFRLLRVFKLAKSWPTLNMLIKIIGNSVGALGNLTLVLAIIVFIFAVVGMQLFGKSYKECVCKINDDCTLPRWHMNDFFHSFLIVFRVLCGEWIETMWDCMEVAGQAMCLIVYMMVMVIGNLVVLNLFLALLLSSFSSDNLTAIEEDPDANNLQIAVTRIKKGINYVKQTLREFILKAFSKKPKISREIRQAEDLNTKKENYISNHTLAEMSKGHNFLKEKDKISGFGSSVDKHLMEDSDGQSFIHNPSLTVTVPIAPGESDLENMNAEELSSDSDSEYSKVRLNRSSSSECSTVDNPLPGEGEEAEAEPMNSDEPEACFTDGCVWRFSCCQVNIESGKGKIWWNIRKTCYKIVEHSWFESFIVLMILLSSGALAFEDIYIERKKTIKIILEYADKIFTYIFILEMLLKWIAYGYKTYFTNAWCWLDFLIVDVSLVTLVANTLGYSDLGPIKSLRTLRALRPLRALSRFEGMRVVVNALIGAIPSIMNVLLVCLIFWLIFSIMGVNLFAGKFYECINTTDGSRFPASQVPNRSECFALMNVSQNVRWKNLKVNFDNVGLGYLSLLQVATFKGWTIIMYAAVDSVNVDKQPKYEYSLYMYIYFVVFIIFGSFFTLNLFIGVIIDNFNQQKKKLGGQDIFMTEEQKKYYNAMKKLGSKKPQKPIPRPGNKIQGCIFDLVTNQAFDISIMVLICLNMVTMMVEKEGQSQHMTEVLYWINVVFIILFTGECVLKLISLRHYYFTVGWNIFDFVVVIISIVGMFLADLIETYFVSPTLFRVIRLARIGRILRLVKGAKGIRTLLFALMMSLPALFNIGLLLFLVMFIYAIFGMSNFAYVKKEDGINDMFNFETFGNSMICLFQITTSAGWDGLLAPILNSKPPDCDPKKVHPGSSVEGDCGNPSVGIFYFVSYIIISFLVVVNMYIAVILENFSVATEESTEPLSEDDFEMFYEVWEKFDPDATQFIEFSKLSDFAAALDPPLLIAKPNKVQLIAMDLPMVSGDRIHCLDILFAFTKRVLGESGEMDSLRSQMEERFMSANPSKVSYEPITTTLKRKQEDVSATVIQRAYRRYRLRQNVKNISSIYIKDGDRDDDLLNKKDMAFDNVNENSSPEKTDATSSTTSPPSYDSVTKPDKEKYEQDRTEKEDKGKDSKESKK
Nav1.4 (CHO-K1), sequence (A0A9J7H6F9 1-1930): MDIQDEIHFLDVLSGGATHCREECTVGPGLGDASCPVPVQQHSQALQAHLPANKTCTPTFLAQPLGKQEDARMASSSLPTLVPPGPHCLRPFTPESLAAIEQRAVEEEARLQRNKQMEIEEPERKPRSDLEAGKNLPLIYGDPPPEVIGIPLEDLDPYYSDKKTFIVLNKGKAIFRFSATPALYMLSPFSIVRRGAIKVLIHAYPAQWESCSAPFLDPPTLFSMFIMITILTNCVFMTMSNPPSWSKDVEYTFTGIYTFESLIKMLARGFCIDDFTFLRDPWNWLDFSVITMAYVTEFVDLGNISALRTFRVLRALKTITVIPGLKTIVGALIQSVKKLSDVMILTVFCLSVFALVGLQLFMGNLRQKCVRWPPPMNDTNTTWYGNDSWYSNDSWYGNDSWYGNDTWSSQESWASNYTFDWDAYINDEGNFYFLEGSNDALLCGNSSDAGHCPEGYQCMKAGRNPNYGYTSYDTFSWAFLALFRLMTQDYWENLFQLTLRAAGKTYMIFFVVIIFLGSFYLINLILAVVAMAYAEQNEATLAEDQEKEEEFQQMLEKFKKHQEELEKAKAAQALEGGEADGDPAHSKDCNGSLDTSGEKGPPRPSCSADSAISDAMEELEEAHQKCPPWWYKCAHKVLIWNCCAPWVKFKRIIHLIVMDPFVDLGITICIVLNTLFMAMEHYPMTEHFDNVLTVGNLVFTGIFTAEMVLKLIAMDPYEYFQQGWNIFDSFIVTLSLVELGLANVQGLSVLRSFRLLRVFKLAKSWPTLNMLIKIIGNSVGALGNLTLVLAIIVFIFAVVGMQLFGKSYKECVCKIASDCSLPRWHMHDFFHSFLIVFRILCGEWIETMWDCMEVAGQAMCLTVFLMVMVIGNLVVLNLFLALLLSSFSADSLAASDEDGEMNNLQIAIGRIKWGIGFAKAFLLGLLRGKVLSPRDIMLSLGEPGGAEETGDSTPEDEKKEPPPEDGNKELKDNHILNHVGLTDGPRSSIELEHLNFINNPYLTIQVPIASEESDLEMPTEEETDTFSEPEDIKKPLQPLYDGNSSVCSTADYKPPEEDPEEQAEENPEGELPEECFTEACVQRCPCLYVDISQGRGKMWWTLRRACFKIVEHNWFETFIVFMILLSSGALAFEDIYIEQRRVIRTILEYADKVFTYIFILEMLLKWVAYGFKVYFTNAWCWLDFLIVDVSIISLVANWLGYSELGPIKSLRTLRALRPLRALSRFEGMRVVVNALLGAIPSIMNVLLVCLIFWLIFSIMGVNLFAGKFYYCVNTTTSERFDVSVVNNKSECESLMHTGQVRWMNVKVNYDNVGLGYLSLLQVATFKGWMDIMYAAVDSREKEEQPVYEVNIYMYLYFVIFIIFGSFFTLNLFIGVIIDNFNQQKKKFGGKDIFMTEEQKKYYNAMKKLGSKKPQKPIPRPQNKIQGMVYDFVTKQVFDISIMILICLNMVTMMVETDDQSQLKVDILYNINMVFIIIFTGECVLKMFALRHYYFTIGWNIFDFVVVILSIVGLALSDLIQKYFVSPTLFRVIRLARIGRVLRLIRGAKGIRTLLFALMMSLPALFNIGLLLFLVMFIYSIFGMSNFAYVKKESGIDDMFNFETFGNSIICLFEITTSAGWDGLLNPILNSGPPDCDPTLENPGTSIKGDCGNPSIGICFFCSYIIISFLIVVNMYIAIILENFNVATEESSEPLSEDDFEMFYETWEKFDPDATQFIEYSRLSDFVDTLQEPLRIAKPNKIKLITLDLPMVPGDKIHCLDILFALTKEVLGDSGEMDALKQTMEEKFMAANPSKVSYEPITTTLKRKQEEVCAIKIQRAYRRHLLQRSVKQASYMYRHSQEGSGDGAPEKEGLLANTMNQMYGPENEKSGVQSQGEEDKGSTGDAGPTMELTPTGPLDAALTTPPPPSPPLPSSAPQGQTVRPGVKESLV

Structure (SMILES) | block of [14C] guanidine influx by TTX [1] | block of [14C] guanidine influx by TTX (Nav1.8 (SK-N-BE2C)) | block of [14C] guanidine influx by TTX (Nav1.4 (CHO-K1)) | block of [14C] guanidine influx by TTX (Nav1.4 and 1.5 (L6)) | block of [14C] guanidine influx by TTX (Nav1.2 and Nav1.7 (PC12)) | pKi (hNav1.7 [2]) | pKd (hNav1.7 [2]) | pIC50 (hNav1.7 [3]) | reversal of pain responses, percent increase from baseline [4] | excess of the inactive (R)-enantiomer resulting from use of the racemate ([5]; oral dosing) [fold] | plasma concentration at an equivalent dose level ([5]; oral dosing 10, 30, 100 or 200 mg/Kg, compared with the (S)-enantiomer)
NC1=N[C@H](O)[C@H]2[C@H]3O[C@]4(O)O[C@@H]([C@@H](O)[C@@]2(N1)[C@@H]4O)[C@]3(O)CO [TTX, tetrodotoxin] | background was partially blocked | TTX partially blocked influx | completely blocked using TTX. | partially blocked by TTX at 100 nM | guanidine influx was completely |  |  |  |  |  | 
O=C1N(Cc2ccc(C(F)(F)F)o2)c2ccccc2C12COc1cc3c(cc12)OCO3 (racemic) [(I), 1′-{[5-(trifluoromethyl)furan-2-yl]methyl}spiro[furo[2,3-f][1,3]benzodioxole-7,3′-indol]-2′(1′H)-one] |  |  |  |  |  | 6.85 | < 5.00 | 8.15 |  |  | 
O=C1N(Cc2ccc(C(F)(F)F)o2)c2ccccc2[C@@]12COc1cc3c(cc12)OCO3 [(I-R), (R)-1′-{[5-(trifluoromethyl)furan-2-yl]methyl}spiro[furo[2,3-f][1,3]benzodioxole-7,3′-indol]-2′(1H)-one] |  |  |  |  |  | 6.06 | < 5.00 | 5.38 | no significant increase from baseline | ~10 | much higher plasma concentration
